Assay results taken from patent US11130769B2 (Prelude Therapeutics Incorporated, priority 2018, dated 2021).
Where two headings read alike, the source gives them in different places.

How the values were obtained:
[1] = tested on: H929 cells; experiment: Cell viability assay (H929 10 FBS); format: cell-based; settings: Homo sapiens, NCI-H929, 24 hours, read-out: H929_10FBS IC50
Procedure, shortened: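 ATP-based luminescence (CellTiter-Glo or ATPlite 1 Step, 30-60 min at RT) gauged viability of H929 myeloma cells after 24 h compound treatment at 37 °C. Cells plated at 4000 per well in 10% FBS RPMI 1640 supplemented with pyruvate, HEPES and glucose.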

[2] = molecular target: MCL-1 (Homo sapiens (Human), UniProt Q07820); experiment: Cell free Mcl-1:Bim affinity assay (fluorescence polarization competition); format: binding; settings: 15 nM MCL-1, 5 nM FITC-Bim, 1 hour at room temperature, read-out: BIM_Ki
Procedure, shortened: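 Fluorescence polarization competition: 10-point 3-fold compound dilutions displaced 5 nM FITC-Bim from 15 nM MCL-1 over 1 h at room temperature. Ki was derived from the fitted IC50 using the Nikolovska-Coleska equation, with percent inhibition normalized to DMSO and positive controls.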

Sequence of MCL-1 (Q07820 whole entry): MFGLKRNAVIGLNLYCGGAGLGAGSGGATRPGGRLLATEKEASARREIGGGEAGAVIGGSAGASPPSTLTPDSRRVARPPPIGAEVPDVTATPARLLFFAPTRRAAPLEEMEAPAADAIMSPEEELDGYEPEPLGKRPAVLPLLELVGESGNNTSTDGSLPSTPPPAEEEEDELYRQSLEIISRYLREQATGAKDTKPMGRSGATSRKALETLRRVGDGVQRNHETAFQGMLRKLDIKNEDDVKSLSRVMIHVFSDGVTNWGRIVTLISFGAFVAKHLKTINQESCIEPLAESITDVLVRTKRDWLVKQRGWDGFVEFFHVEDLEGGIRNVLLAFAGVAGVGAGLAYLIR

| IC50 [1] [nM] | Ki ([2]; class symbols) [nM] | Ki ([2]; numeric values) [nM] | SMILES |
| --- | --- | --- | --- |
| < 500 | < 1 |  | CC1(C)OC/C=C/[C@H](OCC(=O)NC2CCOCC2)[C@@H]2CC[C@H]2CN2C[C@@]3(CCCc4cc(Cl)ccc43)COc3ccc(cc32)S(=O)(=O)NC1=O [Example 282, 2-[(3R,6R,7S,8E,22S)-6′-Chloro-12,12-dimethyl-13,15,15-trioxo-spiro[11,20-dioxa-15λ6-thia-1,14-diazatetracyclo[14.7.2.03,6.019,24]pentacosa-8,16,18,24-tetraene-22,1′-tetralin]-7-yl]oxy-N-tetrahydropyran-4-yl-acetamide] |
| < 500 | < 1 |  | CC1(C)OC/C=C/[C@H](OCC(=O)N2CC(F)(F)C2)[C@@H]2CC[C@H]2CN2C[C@@]3(CCCc4cc(Cl)ccc43)COc3ccc(cc32)S(=O)(=O)NC1=O [Example 278, (3R,6R,7S,8E,22S)-6′-Chloro-7-[2-(3,3-difluoroazetidin-1-yl)-2-oxo-ethoxy]-12,12-dimethyl-15,15-dioxo-spiro[11,20-dioxa-15-thia-1,14-diazatetracyclo[14.7.2.03,6.019,24]pentacosa-8,16,18,24-tetraene-22,1′-tetralin]-13-one] |
| > 1000 | 1 to 100 |  | CC1(C)OC/C=C/[C@H](O)[C@@H]2CC[C@H]2CN2C[C@@]3(CCOc4cc(Cl)ccc43)COc3ccc(cc32)S(=O)(=O)NC1=O [Example 246, (3R,6R,7S,8E,22S)-7′-chloro-7-hydroxy-12,12-dimethyl-15,15-dioxo-spiro[11,20-dioxa-15-thia-1,14-diazatetracyclo[14.7.2.03,6.019,24]pentacosa-8,16,18,24-tetraene-22,4′-chromane]-13-one] |
| > 1000 | 1 to 100 |  | CN(C)C(=O)N(C)[C@H]1/C=C/COC(C)(C)C(=O)NS(=O)(=O)c2ccc3c(c2)N(C[C@@H]2CC[C@H]21)C[C@@]1(CCCc2cc(Cl)ccc21)CO3 [Example 257, 1,1,3-Trimethyl-3-[(3R,6R,7S,8E,22S)-6′-chloro-12,12-dimethyl-13,15,15-trioxo-spiro[11,20-dioxa-15-thia-1,14-diazatetracyclo[14.7.2.03,6.019,24]pentacosa-8,16(25),17,19(24)-tetraene-22,1′-tetralin]-7-yl]urea] |
| < 500 | < 1 |  | CC1(C)OC/C=C/[C@H](OC(=O)N2CCN3CCOC[C@H]3C2)[C@@H]2CC[C@H]2CN2C[C@@]3(CCCc4cc(Cl)ccc43)COc3ccc(cc32)S(=O)(=O)NC1=O [Example 171, [(3R,6R,7S,8E,22S)-6′-Chloro-12,12-dimethyl-13,15,15-trioxo-spiro[11,20-dioxa-15,6-thia-1,14-diazatetracyclo[14.7.2.03,6.019,24]pentacosa-8,16,18,24-tetraene-22,1′-tetralin]-7-yl](9aS)-3,4,6,7,9,9a-hexahydro-1H-pyrazino[2,1-c][1,4]oxazine-8-carboxylate] |
| < 500 | < 1 |  | CN(C(=O)O[C@H]1/C=C/CN(C)C(C)(C)C(=O)NS(=O)(=O)c2ccc3c(c2)N(C[C@@H]2CC[C@H]21)C[C@@]1(CCCc2cc(Cl)ccc21)CO3)[C@@H]1CCOC1 [Example 218, [(3R,6R,7S,8E,22S)-6′-Chloro-11,12,12-trimethyl-13,15,15-trioxo-spiro[20-oxa-15-thia-1,11,14-triazatetracyclo[14.7.2.03,6.019,24]pentacosa-8,16,18,24-tetraene-22,1′-tetralin]-7-yl] N-methyl-N-[(3R)-tetrahydrofuran-3-yl]carbamate] |
| < 500 | < 1 |  | CN(C)C[C@@H]1CCCN1C(=O)O[C@H]1/C=C/COC(C)(C)C(=O)NS(=O)(=O)c2ccc3c(c2)N(C[C@@H]2CC[C@H]21)C[C@@]1(CCCc2cc(Cl)ccc21)CO3 [Example 168, [(3R,6R,7S,8E,22S)-6′-Chloro-12,12-dimethyl-13,15,15-trioxo-spiro[11,20-dioxa-15-thia-1,14-diazatetracyclo[14.7.2.03,6.019,24]pentacosa-8,16,18,24-tetraene-22,1′-tetralin]-7-yl] (2S)-2-[(dimethylamino)methyl]pyrrolidine-1-carboxylate] |

More lines, now with the values behind:

| SMILES | IC50 [1] [nM] | Ki ([2]; class symbols) [nM] | Ki ([2]; numeric values) [nM] |
| --- | --- | --- | --- |
| C[C@@H]1C(=O)NS(=O)(=O)c2ccc3c(c2)N(C[C@@H]2CC[C@H]2[C@@H](O)/C=C/CN1C)C[C@@]1(CCCc2cc(Cl)ccc21)CO3 [Example 144, (3R,6R,7S,8E,12R,22S)-6′-Chloro-7-hydroxy-11,12-dimethyl-15,15-dioxo-spiro[20-oxa-15-thia-1,11,14-triazatetracyclo[14.7.2.03,6.019,24]pentacosa-8,16,18,24-tetraene-22,1′-tetralin]-13-one] | > 1000 | 1 to 100 |  |
| CO[C@@H]1/C=C/CC[C@@H](CO)C(=O)NS(=O)(=O)c2ccc3c(c2)N(C[C@@H]2CC[C@H]21)C[C@@]1(CCCc2cc(Cl)ccc21)CO3 [Example 95, (3R,6R,7R,8E,12S,22S)-6′-Chloro-12-(hydroxymethyl)-7-methoxy-15,15-dioxo-spiro[20-oxa-15-thia-1,14-diazatetracyclo[14.7.2.03,6.019,24]pentacosa-8,16,18,24-tetraene-22,1′-tetralin]-13-one] | > 1000 | 1 to 100 |  |
| CO[C@@H]1/C=C\CN[C@H](C)C(=O)NS(=O)(=O)c2ccc3c(c2)N(C[C@@H]2CC[C@H]21)C[C@@]1(CCCc2cc(Cl)ccc21)CO3 [Example 122, (3R,6R,7R,8Z,12R,22S)-6′-Chloro-7-methoxy-12-methyl-15,15-dioxo-spiro[20-oxa-15-thia-1,11,14-triazatetracyclo[14.7.2.03,6.019,24]pentacosa-8,16(25),17,19(24)-tetraene-22,1′-tetralin]-13-one] | > 1000 | 1 to 100 |  |
| COCC[C@H]1C(=O)NS(=O)(=O)c2ccc3c(c2)N(C[C@@H]2CC[C@H]2[C@H](OC)/C=C/C[C@@H]1C)C[C@@]1(CCCc2cc(Cl)ccc21)CO3 [Example 89, (3R,6R,7R,8E,11S,12R,22S)-6′-Chloro-7-methoxy-12-(2-methoxyethyl)-1-methyl-15,15-dioxo-spiro[20-oxa-15-thia-1,14-diazatetracyclo[14.7.2.03,6.019,24]pentacosa-8,16,18,24-tetraene-22,1′-tetralin]-13-one] | > 1000 | 1 to 100 |  |
| CO[C@@H]1/C=C/CNC2(CCC2)C(=O)NS(=O)(=O)c2ccc3c(c2)N(C[C@@H]2CC[C@H]21)C[C@@]1(CCCc2cc(Cl)ccc21)CO3 [Example 116, (3R,6R,7R,8E,22S)-6′-Chloro-7-methoxy-12,12-(1,3-propylene)-15,15-dioxo-spiro[[20]oxa-15-thia-1,11,14-triazatetracyclo[14.7.2.03,6.019,24]pentacosa[8,16(25),17,19(24)]tetraene-22,1′-tetralin]-13-one] | < 1000 | 1 to 100 |  |
| CO[C@@H]1/C=C/CN(C(C)=O)[C@H](C)C(=O)NS(=O)(=O)c2ccc3c(c2)N(C[C@@H]2CC[C@H]21)C[C@@]1(CCCc2cc(Cl)ccc21)CO3 [Example 133, (3R,6R,7R,8E,12R,22S)-6′-Chloro-7-methoxy-11-acetyl-12-methyl-15,15-dioxo-spiro[20-oxa-15-thia-1,11,14-triazatetracyclo[14.7.2.03,6.019,24]pentacosa-8,16(25),17,19(24)-tetraene-22,1′-tetralin]-13-one] | > 1000 | 1 to 100 |  |
| CC1(C)OC/C=C/[C@H](OC(=O)N2CC(F)(F)C2)[C@@H]2CC[C@H]2CN2C[C@@]3(CCCc4cc(Cl)ccc43)COc3ccc(cc32)S(=O)(=O)NC1=O [Example 49, [(3R,6R,7S,8E,22S)-6′-Chloro-12,12-dimethyl-13,15,15-trioxo-spiro[11,20-dioxa-15-thia-1,14-diazatetracyclo[14.7.2.03,6.019,24]pentacosa-8,16,18,24-tetraene-22,1′-tetralin]-7-yl] 3,3-difluoroazetidine-1-carboxylate] | < 500 | < 1 |  |
| CC(=O)O[C@H]1/C=C/CO[C@@H](C)C(=O)NS(=O)(=O)c2ccc3c(c2)N(C[C@@H]2CC[C@H]21)C[C@@]1(CCCc2cc(Cl)ccc21)CO3 [Example 113, [(3R,6R,7S,8E,12S,22S)-6′-Chloro-12-methyl-13,15,15-trioxo-spiro[11,20-dioxa-15-thia-1,14-diazatetracyclo[14.7.2.03,6.019,24]pentacosa-8,16,18,24-tetraene-22,1′-tetralin]-7-yl] acetate] | < 1000 | < 1 |  |
| C=CCCCC(=O)NS(=O)(=O)c1ccc2c(c1)N(Cc1cnn(CC=C)c1)CC1(CCCc3cc(Cl)ccc31)CO2 (stereo not drawn) [Example 10, N-[5-[(1-Allylpyrazol-4-yl)methyl]-6′-chloro-spiro[2,4-dihydro-1,5-benzoxazepine-3,1′-tetralin]-7-yl]sulfonylhex-5-enamide] | > 1000 |  | 1430 |
| COC[C@H]1C(=O)NS(=O)(=O)c2ccc3c(c2)N(C[C@@H]2CC[C@H]2[C@H](OC)/C=C/C[C@@H]1C)C[C@@]1(CCCc2cc(Cl)ccc21)CO3 [Example 87, (3R,6R,7R,8E,11S,12S,22S)-6′-Chloro-7-methoxy-12-(methoxymethyl)-11-methyl-15,15-dioxo-spiro[20-oxa-15-thia-1,14-diazatetracyclo[14.7.2.03,6.019,24]pentacosa-8,16,18,24-tetraene-22,1′-tetralin]-13-one] | < 1000 | < 1 |  |
| CO[C@@H]1/C=C/CN(S(C)(=O)=O)[C@H](C)C(=O)NS(=O)(=O)c2ccc3c(c2)N(C[C@@H]2CC[C@H]21)C[C@@]1(CCCc2cc(Cl)ccc21)CO3 [Example 135, (3R,6R,7R,8E,12R,22S)-6′-Chloro-7-methoxy-12-methyl-11-methylsulfonyl-15,15-dioxo-spiro[20-oxa-15-thia-1,11,14-triazatetracyclo[14.7.2.03,6.019,24]pentacosa-8,16,18,24-tetraene-22,1′-tetralin]-13-one] | > 1000 | 1 to 100 |  |
